Source: patent US20260297070A1, “CYCLIC [COMPOUND LEFT OUT] WRN INHIBITORS” (Nimbus Wadjet, Inc., priority 2023, published 2026)

target: T1, human Werner helicase (WRN-BV08, Uniprot Q14191, amino acids 517-1235 with L1074F point mutation) (Homo sapiens, UniProt Q14191, L1074F); experiment: WRN (BV08) ADP-Glo Assay; format: biochemical; details: 0.15 nM WRN, 5 μM ATP, 0.1 nM DNA duplex, 15 min preincubation, 60 min at 25° C., pH 7.5, 1% DMSO; read-out: ADP-Glo_hWRN_IC50
T1 construct: Uniprot Q14191, amino acids 517-1235 with L1074F point mutation; TEV-cleavable 8×His (C, cleaved yes); made in house; host or cells: Sf9 insect cells (baculovirus)
T1 sequence (Q14191 with tags, fused parts or gaps L1074F limits assumed): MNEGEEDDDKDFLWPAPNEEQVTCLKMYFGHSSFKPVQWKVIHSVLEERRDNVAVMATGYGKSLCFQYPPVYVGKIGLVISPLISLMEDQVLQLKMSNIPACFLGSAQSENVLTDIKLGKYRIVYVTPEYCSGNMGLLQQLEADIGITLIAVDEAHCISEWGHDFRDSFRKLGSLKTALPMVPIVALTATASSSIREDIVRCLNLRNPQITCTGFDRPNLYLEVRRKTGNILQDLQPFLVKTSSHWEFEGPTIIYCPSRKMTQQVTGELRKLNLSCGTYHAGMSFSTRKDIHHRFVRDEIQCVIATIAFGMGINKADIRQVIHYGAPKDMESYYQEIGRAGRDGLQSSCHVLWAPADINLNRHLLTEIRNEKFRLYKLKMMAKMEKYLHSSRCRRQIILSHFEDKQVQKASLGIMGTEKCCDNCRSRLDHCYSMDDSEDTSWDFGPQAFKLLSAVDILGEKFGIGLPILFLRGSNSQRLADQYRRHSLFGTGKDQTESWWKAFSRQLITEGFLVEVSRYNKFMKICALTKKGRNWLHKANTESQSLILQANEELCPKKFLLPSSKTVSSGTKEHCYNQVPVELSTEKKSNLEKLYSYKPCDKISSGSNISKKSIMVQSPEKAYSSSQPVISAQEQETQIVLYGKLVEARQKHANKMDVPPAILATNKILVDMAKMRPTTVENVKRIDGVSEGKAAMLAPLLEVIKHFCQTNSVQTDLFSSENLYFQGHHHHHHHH
In short: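 0.15 nM WRN (aa 517-1235, L1074F, Sf9-expressed, tag cleaved) preincubated 15 min at 25 °C with compound, then 5 μM ATP and 0.1 nM DNA duplex added for 60 min. Buffer: 20 mM Bicine pH 7.5, 1 mM MgCl2, 10 mM KCl, 1 mM TCEP; 1% DMSO. ADP-Glo luminescence; IC50 by 4-parameter fit.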

Row | SMILES | IC50 [nM]
1 | COc1cc(CN(C(=O)Cc2ccc(C3(C)CC3)cc2F)C2C=CS(=O)(=O)C2)ccn1 (stereo not shown) [I-97, N-(1,1-dioxo-2,3-dihydro-1lambda6-thiophen-3-yl)-2-[2-fluoro-4-(1-methylcyclopropyl)phenyl]-N-[(2-methoxypyridin-4-yl)methyl]acetamide] | 500 to 5000
2 | CC(C)(O)c1cc(CN(C(=O)C2CNc3cc(-c4ccc(F)cc4)ccc32)C2C=CS(=O)(=O)C2)ccn1 (stereo not shown) [I-98, N-(1,1-dioxo-2,3-dihydro-1lambda6-thiophen-3-yl)-6-(4-fluorophenyl)-N-{[2-(2-hydroxypropan-2-yl)pyridin-4-yl]methyl}-2,3-dihydro-1H-indole-3-carboxamide] | 500 to 5000
3 | CN(C)c1cc(CN(C(=O)Cc2ccc(-c3ccc(F)c(F)c3)cc2F)C2C=CS(=O)(=O)C2)ccn1 (stereo not shown) [I-99, N-{[2-(dimethylamino)pyridin-4-yl]methyl}-N-(1,1-dioxo-2,3-dihydro-1lambda6-thiophen-3-yl)-2-{3,3′,4′-trifluoro-[1,1′-biphenyl]-4-yl}acetamide] | 500 to 5000
4 | Cc1cccn1-c1ccc(CC(=O)N(Cc2ccc(Br)cc2)C2C=CS(=O)(=O)C2)c(F)c1 (stereo not shown) [I-100, N-[(4-bromophenyl)methyl]-N-(1,1-dioxo-2,3-dihydro-1lambda6-thiophen-3-yl)-2-[2-fluoro-4-(2-methyl-1H-pyrrol-1-yl)phenyl]acetamide] | 500 to 5000
5 | CC(C)(O)c1cc(CN(C(=O)Cc2ccc(-c3ccc(F)cc3)cc2Cl)C2C=CS(=O)(=O)C2)ccn1 (stereo not shown) [I-101, 2-{3-chloro-4′-fluoro-[1,1′-biphenyl]-4-yl}-N-(1,1-dioxo-2,3-dihydro-1lambda6-thiophen-3-yl)-N-{[2-(2-hydroxypropan-2-yl)pyridin-4-yl]methyl}acetamide] | 500 to 5000
6 | COc1ccc2sc(CN(C(=O)Cc3ccc(-n4cccc4)cc3)C3C=CS(=O)(=O)C3)nc2c1 (stereo not shown) [I-102, N-(1,1-dioxo-2,3-dihydro-1lambda6-thiophen-3-yl)-N-[(5-methoxy-1,3-benzothiazol-2-yl)methyl]-2-[4-(1H-pyrrol-1-yl)phenyl]acetamide] | 500 to 5000
7 | Cc1cccn1-c1ccc(CC(=O)N(Cc2ccnc3c2CCC3O)C2C=CS(=O)(=O)C2)c(F)c1 (stereo not shown) [I-103, N-(1,1-dioxido-2,3-dihydrothiophen-3-yl)-2-(2-fluoro-4-(2-methyl-1H-pyrrol-1-yl)phenyl)-N-((7-hydroxy-6,7-dihydro-5H-cyclopenta[b]pyridin-4-yl)methyl)acetamide] | 500 to 5000
8 | CN(C)C(=O)C(C(=O)N(Cc1ccncc1)C1C=CS(=O)(=O)C1)c1ccc(-c2ccc(F)cc2)cc1 (stereo not shown) [I-104, N′-(1,1-dioxo-2,3-dihydro-1lambda6-thiophen-3-yl)-2-{4′-fluoro-[1,1′-biphenyl]-4-yl}-N,N-dimethyl-N′-[(pyridin-4-yl)methyl]propanediamide] | 500 to 5000
9 | COc1cc(CN(C(=O)Cc2ccc(C(F)(F)F)cc2)C2C=CS(=O)(=O)C2)ccn1 (stereo not shown) [I-105, N-(1,1-dioxo-2,3-dihydro-1lambda6-thiophen-3-yl)-N-[(2-methoxypyridin-4-yl)methyl]-2-[4-(trifluoromethyl)phenyl]acetamide] | 500 to 5000
10 | CC(C(=O)N(Cc1ccnc(C(C)(C)O)c1)[C@@H]1C=CS(=O)(=O)C1)n1cc(-c2ccc(F)cc2)cn1 (stereo partly drawn) [I-106, N-[(3R)-1,1-dioxo-2,3-dihydro-1lambda6-thiophen-3-yl]-2-[4-(4-fluorophenyl)-1H-pyrazol-1-yl]-N-{[2-(2-hydroxypropan-2-yl)pyridin-4-yl]methyl}propanamide] | 500 to 5000
11 | CN(C)C(=O)C(C(=O)N(Cc1nc(C2CC2)cs1)C1C=CS(=O)(=O)C1)c1ccc(S(F)(F)(F)(F)F)cc1 (stereo not shown) [I-107, N′-[(4-cyclopropyl-1,3-thiazol-2-yl)methyl]-N′-(1,1-dioxo-2,3-dihydro-1lambda6-thiophen-3-yl)-N,N-dimethyl-2-[4-(pentafluoro-lambda6-sulfanyl)phenyl]propanediamide] | 500 to 5000
12 | CC(C)(O)c1cc(CN(C(=O)Cn2cc(-c3ccccc3F)cn2)C2C=CS(=O)(=O)C2)ccn1 (stereo not shown) [I-108, N-(1,1-dioxo-2,3-dihydro-1lambda6-thiophen-3-yl)-2-[4-(2-fluorophenyl)-1H-pyrazol-1-yl]-N-{[2-(2-hydroxypropan-2-yl)pyridin-4-yl]methyl}acetamide] | 500 to 5000
13 | COc1cc(CN(C(=O)C2Cc3cc(-n4cccc4C)ccc3O2)C2C=CS(=O)(=O)C2)ccn1 (stereo not shown) [I-109, N-(1,1-dioxido-2,3-dihydrothiophen-3-yl)-N-((2-methoxypyridin-4-yl)methyl)-5-(2-methyl-1H-pyrrol-1-yl)-2,3-dihydrobenzofuran-2-carboxamide] | 500 to 5000
14 | O=C(Cc1ccc(-c2ccc(F)cc2)cc1F)N(Cc1ccnc(OC2CC2)c1)C1C=CS(=O)(=O)C1 (stereo not shown) [I-110, N-[(2-cyclopropoxypyridin-4-yl)methyl]-2-{3,4′-difluoro-[1,1′-biphenyl]-4-yl}-N-(1,1-dioxo-2,3-dihydro-1lambda6-thiophen-3-yl)acetamide] | 500 to 5000
15 | O=C(Cc1ccc(-n2cccc2)cc1)N(Cc1nc(C2CC2)cs1)C1C=CS(=O)(=O)C1 (stereo not shown) [I-111, N-[(4-cyclopropyl-1,3-thiazol-2-yl)methyl]-N-(1,1-dioxo-2,3-dihydro-1lambda6-thiophen-3-yl)-2-[4-(1H-pyrrol-1-yl)phenyl]acetamide] | 500 to 5000
16 | COc1nccc(CN(C(=O)Cc2ccc(-n3cccc3C)cc2F)C2C=CS(=O)(=O)C2)n1 (stereo not shown) [I-112, N-(1,1-dioxo-2,3-dihydro-1lambda6-thiophen-3-yl)-2-[2-fluoro-4-(2-methyl-1H-pyrrol-1-yl)phenyl]-N-[(2-methoxypyrimidin-4-yl)methyl]acetamide] | 500 to 5000
17 | CCOC(C(=O)N(Cc1ccnc(OC)c1)C1C=CS(=O)(=O)C1)c1ccc(-c2ccc(F)cc2)cc1 (stereo not shown) [I-113, N-(1,1-dioxo-2,3-dihydro-1lambda6-thiophen-3-yl)-2-ethoxy-2-{4′-fluoro-[1,1′-biphenyl]-4-yl}-N-[(2-methoxypyridin-4-yl)methyl]acetamide] | 500 to 5000
18 | COc1cc(CN(C(=O)C2Cc3cc(C(F)(F)F)ccc3O2)[C@@H]2C=CS(=O)(=O)C2)ccn1 (stereo partly drawn) [I-114, N-[(3R)-1,1-dioxo-2,3-dihydro-1lambda6-thiophen-3-yl]-N-[(2-methoxypyridin-4-yl)methyl]-5-(trifluoromethyl)-2,3-dihydro-1-benzofuran-2-carboxamide] | 500 to 5000
19 | O=C(Cc1ccc(-c2ccc(F)cc2)cc1F)N(Cc1ccncc1)C1C=CS(=O)(=O)C1 (stereo not shown) [I-115, 2-{3,4′-difluoro-[1,1′-biphenyl]-4-yl}-N-(1,1-dioxo-2,3-dihydro-1lambda6-thiophen-3-yl)-N-[(pyridin-4-yl)methyl]acetamide] | 500 to 5000
20 | CC(C)(O)c1cc(CN(C(=O)Cc2ncc(-c3ccc(F)c(F)c3)cn2)C2C=CS(=O)(=O)C2)ccn1 (stereo not shown) [I-116, 2-[5-(3,4-difluorophenyl)pyrimidin-2-yl]-N-(1,1-dioxo-2,3-dihydro-1lambda6-thiophen-3-yl)-N-{[2-(2-hydroxypropan-2-yl)pyridin-4-yl]methyl}acetamide] | 500 to 5000
21 | COc1cc(CN(C(=O)Cc2ccc(C(C)(F)F)cc2)C2C=CS(=O)(=O)C2)ccn1 (stereo not shown) [I-117, 2-[4-(1,1-difluoroethyl)phenyl]-N-(1,1-dioxo-2,3-dihydro-1lambda6-thiophen-3-yl)-N-[(2-methoxypyridin-4-yl)methyl]acetamide] | 500 to 5000
22 | COCc1cc(CN(C(=O)Cc2ccc(-n3cccc3C)cc2F)C2C=CS(=O)(=O)C2)ccn1 (stereo not shown) [I-118, N-(1,1-dioxo-2,3-dihydro-1lambda6-thiophen-3-yl)-2-[2-fluoro-4-(2-methyl-1H-pyrrol-1-yl)phenyl]-N-{[2-(methoxymethyl)pyridin-4-yl]methyl}acetamide] | 500 to 5000
23 | COc1cc(CN(C(=O)Cc2ccc(-n3cccc3C)cc2)C2C=CS(=O)(=O)C2)ccn1 (stereo not shown) [I-119, N-(1,1-dioxo-2,3-dihydro-1lambda6-thiophen-3-yl)-N-[(2-methoxypyridin-4-yl)methyl]-2-[4-(2-methyl-1H-pyrrol-1-yl)phenyl]acetamide] | 500 to 5000
24 | O=C(Cc1ccc(-c2cccc(F)c2)cc1F)N(Cc1ccncc1)C1C=CS(=O)(=O)C1 (stereo not shown) [I-120, 2-{3,3′-difluoro-[1,1′-biphenyl]-4-yl}-N-(1,1-dioxo-2,3-dihydro-1lambda6-thiophen-3-yl)-N-[(pyridin-4-yl)methyl]acetamide] | 500 to 5000
25 | COc1cc(CN(C(=O)C2CNc3cc(-c4ccc(F)cc4)ccc32)C2C=CS(=O)(=O)C2)ccn1 (stereo not shown) [I-121, N-(1,1-dioxo-2,3-dihydro-1lambda6-thiophen-3-yl)-6-(4-fluorophenyl)-N-[(2-methoxypyridin-4-yl)methyl]-2,3-dihydro-1H-indole-3-carboxamide] | 500 to 5000
26 | O=C(Cc1ccc(-n2cccc2)cc1F)N(Cc1ccc(Br)cc1)C1C=CS(=O)(=O)C1 (stereo not shown) [I-122, N-[(4-bromophenyl)methyl]-N-(1,1-dioxo-2,3-dihydro-1lambda6-thiophen-3-yl)-2-[2-fluoro-4-(1H-pyrrol-1-yl)phenyl]acetamide] | 500 to 5000
27 | CC(C)c1ccc(CC(=O)N(Cc2ccnc(C(C)(C)O)c2)C2C=CS(=O)(=O)C2)cc1 (stereo not shown) [I-123, N-(1,1-dioxo-2,3-dihydro-1lambda6-thiophen-3-yl)-N-{[2-(2-hydroxypropan-2-yl)pyridin-4-yl]methyl}-2-[4-(propan-2-yl)phenyl]acetamide] | 500 to 5000
28 | O=C(C1CNc2cc(-c3ccc(F)cc3)ccc21)N(Cc1ccncc1)C1C=CS(=O)(=O)C1 (stereo not shown) [I-124, N-(1,1-dioxo-2,3-dihydro-1lambda6-thiophen-3-yl)-6-(4-fluorophenyl)-N-[(pyridin-4-yl)methyl]-2,3-dihydro-1H-indole-3-carboxamide] | 500 to 5000
